Source: patent US20250268971A1, “SAFFRON AS ANTI-INFLAMMATORY AGENT IN TREATING INFLAMMATORY BOWEL DISEASE” (HOWARD UNIVERSITY, priority 2020, published 2025)

Test system: human PBMCs T cells
Assay: Human PBMCs T cells pro-inflammatory cytokine secretion (flow cytometry)
Assay type: cell-based
Protocol: A 48 well plate was coated with human anti-CD3 antibody (1 μg/ml) overnight. After washing with 1×PBS, plates were coated with human PBMCs (0.5×10^6 cells/well), human anti-CD28 (1 μg/ml), β-mercaptoethanol (1 μg/ml), different concentrations of Saffron aqueous extract (250 μg/ml, 500 μg/ml) and other constituents of saffron, Safranal (500 μM, 1 mM) (Sigma Aldrich, USA). The human PBMCS of 0.5×10^6 cells/well PBMCs were seeded in 48 well microplates in RPMI-1640 (Sigma, USA) supplemented with 10% fetal bovine serum and 1% penicillin/streptomycin at 37° C. and in 5% CO2) (day 0). At day 3, cells were stimulated with phorbol myristate acetate (PMA; 50 ng/ml)+ Ionomycin (1 μg/ml)+ Brefeldin A (1X) for 4 hrs. and cells were harvested and stained for flow cytometry. The human specific antibodies for T cells (dye; Zombi Aqua, CD45 PerCP 5.5, CD3 BV421, CD4 PETR, CD127-PECy7, CD25 BV605, CD8a AF488 and pro-inflammatory cytokines, like TNF-α AF700, IFNg APC, IL4 PE) were used to stain the PBMC cells.
In CD8+ T cells, TNFα+ expression was reduced in presence of SFE dose 500 μg/ml and safranal doses (500 μM, 1 mM) only, while IFNg+ expression was reduced in all tested doses of SFE and safranal in comparison to stimulated human PBMCs treated with media.

CC1=C(C=O)C(C)(C)CC=C1 [safranal, Safranal]
TNFα+ expression in CD8+ T cells (SFE 500 μg/ml only, safranal 500 μM, 1 mM, vs media treated stimulated PBMC): reduced | TNFα+ in CD4+ T cells (SFE 250 and 500 μg/ml, safranal 500 μM, 1 mM, anti-CD3/CD28, PMA+ionomycin stimulated, vs media): inhibitory response | IFNg+ in CD4+ T cells (SFE 250 and 500 μg/ml, safranal 500 μM, 1 mM, vs media treated stimulated PBMC): inhibitory response | IFNg+ expression in CD8+ T cells (all tested doses (SFE 250, 500 μg/ml; safranal 500 μM, 1 mM), vs media): reduced
